Data published in ChEMBL document CHEMBL1147043, “Comparative metabolism of radiolabeled muraglitazar in animals and humans by quantitative and qualitative metabolite profiling” (Drug Metab Dispos, 2007).

Columns and labels:
[1] = target: T1, Peroxisome proliferator-activated receptor alpha (Homo sapiens) (UniProt Q07869); assay: (§1) Agonist activity at PPAR alpha in human HEK cells by transactivation assay; assay type: functional, cell-based; details: HEK293
T1 sequence (whole entry): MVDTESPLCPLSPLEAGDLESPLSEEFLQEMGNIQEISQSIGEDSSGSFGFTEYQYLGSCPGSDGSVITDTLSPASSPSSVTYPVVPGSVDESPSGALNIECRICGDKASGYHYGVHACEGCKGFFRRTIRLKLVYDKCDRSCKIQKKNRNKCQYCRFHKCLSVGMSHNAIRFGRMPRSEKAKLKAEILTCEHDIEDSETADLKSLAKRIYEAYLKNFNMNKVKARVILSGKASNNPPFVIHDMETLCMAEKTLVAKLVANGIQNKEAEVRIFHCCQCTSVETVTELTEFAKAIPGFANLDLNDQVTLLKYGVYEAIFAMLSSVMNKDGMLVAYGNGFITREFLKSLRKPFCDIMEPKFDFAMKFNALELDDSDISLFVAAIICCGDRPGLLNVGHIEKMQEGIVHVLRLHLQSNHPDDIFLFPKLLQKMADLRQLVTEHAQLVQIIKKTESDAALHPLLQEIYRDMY

[2] = target: T2, Peroxisome proliferator-activated receptor alpha (Homo sapiens, UniProt Q07869); assay: as §1; assay type: functional, cell-based, HEK293
T2 sequence (Q07869 whole entry): T1 sequence (whole entry)

[3] = target: T2, Peroxisome proliferator-activated receptor alpha; assay: Binding affinity at PPAR alpha receptor
[4] = target: T1, Peroxisome proliferator-activated receptor alpha (Homo sapiens); assay: Intrinsic activity at PPAR alpha in human HEK cells at 1 uM by transactivation assay; assay type: cell-based; details: HEK293
[5] = Bile excretion of compound in bile duct-cannulated orally dosed cynomolgus monkey within 48 hrs; assay type: ADME, organism-based, Macaca fascicularis; details: po, read-out: Activity
[6] = target: T3, Peroxisome proliferator-activated receptor gamma (Homo sapiens, UniProt P37231); assay: Binding affinity at PPAR gamma receptor
T3 sequence (P37231 whole entry): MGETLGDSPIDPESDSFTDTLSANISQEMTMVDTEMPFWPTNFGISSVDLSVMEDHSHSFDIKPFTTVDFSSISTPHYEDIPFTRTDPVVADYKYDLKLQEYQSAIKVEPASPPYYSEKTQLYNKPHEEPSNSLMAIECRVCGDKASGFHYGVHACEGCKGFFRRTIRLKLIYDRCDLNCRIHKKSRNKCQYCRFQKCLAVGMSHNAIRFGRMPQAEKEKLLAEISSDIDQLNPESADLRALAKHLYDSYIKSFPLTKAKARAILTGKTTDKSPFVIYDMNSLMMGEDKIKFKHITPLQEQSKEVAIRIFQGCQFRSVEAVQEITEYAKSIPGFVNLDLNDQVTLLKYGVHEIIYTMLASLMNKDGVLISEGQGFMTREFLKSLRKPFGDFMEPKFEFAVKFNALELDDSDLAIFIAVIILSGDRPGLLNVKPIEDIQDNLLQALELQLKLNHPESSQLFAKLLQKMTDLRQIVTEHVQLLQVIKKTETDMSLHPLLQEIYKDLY

[7] = Bile excretion of compound in bile duct-cannulated orally dosed Sprague-Dawley rat within 24 hrs; assay type: ADME, organism-based; details: po, read-out: Activity
[8] = AUC (0 to T) in Sprague-Dawley rat at 10 mg/kg, po after 96 hrs; assay type: ADME, organism-based; parameters: time < 96 hr, dose 10 mg/kg, route oral; details: plasma
[9] = Tmax in Beagle dog at 2 mg/kg, po after 12 hrs; assay type: ADME, organism-based, Canis lupus familiaris; parameters: dose 2 mg/kg, route oral; details: in vivo
[10] = AUC (0 to T) in cynomolgus monkey at 1.9 mg/kg, po after 144 hrs; assay type: ADME, organism-based, Macaca fascicularis; parameters: time < 144 hr, dose 1.9 mg/kg, route oral; details: plasma
[11] = Tmax in human at 10 mg, po after 192 hrs; assay type: ADME, organism-based; details: in vivo
[12] = Cmax in Beagle dog at 2 mg/kg, po after 12 hrs; assay type: ADME, organism-based, Canis lupus familiaris; parameters: dose 2 mg/kg, route oral; details: in vivo
[13] = AUC (0 to T) in human at 10 mg, po after 192 hrs; assay type: ADME, organism-based; parameters: dose 10 mg, time < 192 hr, route oral; details: plasma
[14] = Half life in Beagle dog at 2 mg/kg, po after 12 hrs; assay type: ADME, organism-based, Canis lupus familiaris; parameters: dose 2 mg/kg, route oral; details: in vivo
[15] = Cmax in cynomolgus monkey at 1.9 mg/kg, po after 144 hrs; assay type: ADME, organism-based, Macaca fascicularis; parameters: dose 1.9 mg/kg, route oral; details: in vivo
[16] = Cmax in human at 10 mg, po after 192 hrs; assay type: ADME, organism-based; parameters: dose 10 mg, route oral; details: in vivo
[17] = Cmax in Sprague-Dawley rat at 10 mg/kg, po after 96 hrs; assay type: ADME, organism-based; parameters: dose 10 mg/kg, route oral; details: in vivo
[18] = Half life in human at 10 mg, po after 192 hrs; assay type: ADME, organism-based; details: in vivo
[19] = AUC (0 to T) in Beagle dog at 2 mg/kg, po after 12 hrs; assay type: ADME, organism-based, Canis lupus familiaris; parameters: time < 12 hr, dose 2 mg/kg, route oral; details: plasma
[20] = Tmax in Sprague-Dawley rat at 10 mg/kg, po after 96 hrs; assay type: ADME, organism-based; parameters: dose 10 mg/kg, route oral; details: in vivo
[21] = Half life in cynomolgus monkey at 1.9 mg/kg, po after 144 hrs; assay type: ADME, organism-based, Macaca fascicularis; parameters: dose 1.9 mg/kg, route oral; details: in vivo
[22] = Tmax in cynomolgus monkey at 1.9 mg/kg, po after 144 hrs; assay type: ADME, organism-based, Macaca fascicularis; parameters: dose 1.9 mg/kg, route oral; details: in vivo
[23] = Half life in Sprague-Dawley rat at 10 mg/kg, po after 96 hrs; assay type: ADME, organism-based; parameters: dose 10 mg/kg, route oral; details: in vivo

| Compound | EC50 [2] [µM] | IC50 [3] [µM] | dose excreted at 48 h [5] [%] | IC50 [6] [µM] | other results |
| --- | --- | --- | --- | --- | --- |
| COc1ccc(OC(=O)N(CC(=O)O)Cc2ccc(OCCc3nc(-c4ccc(O)cc4)oc3C)cc2)cc1 | 0.26 | 0.099 | < 5 | 2.05 | %max [1]: 93%; Intrinsic activity [4]: 78% |
| Cc1oc(-c2ccccc2)nc1CCOc1ccc(CN(CC(=O)O)C(=O)Oc2ccc(O)cc2)cc1 | 6.89 | 3.74 | < 5 | > 15 | %max [1]: 78%; Intrinsic activity [4]: 6%; dose excreted at 24 h [7]: 11% |
| Cc1oc(-c2ccccc2)nc1C(O)COc1ccc(CN(CC(=O)O)C(=O)Oc2ccc(O)cc2)cc1 (configuration not stated) |  |  | < 5 |  |  |
| COc1ccc(OC(=O)N(CC(=O)O)Cc2ccc(OCC(O)c3nc(-c4ccccc4)oc3CO)cc2)cc1 (configuration not stated) |  |  | < 5 |  |  |
| COc1ccc(OC(=O)N(CC(=O)O)Cc2ccc(OCCc3nc(-c4ccc(O)cc4)oc3CO)cc2)cc1 |  |  | < 5 |  |  |
| Cc1oc(-c2ccc(O[C@@H]3O[C@H](C(=O)O)[C@@H](O)[C@H](O)[C@H]3O)cc2)nc1CCOc1ccc(CN(CC(=O)O)C(=O)Oc2ccc(O)cc2)cc1 |  |  | < 5 |  |  |
| COc1ccc(OC(=O)N(CC(=O)O)Cc2ccc(OCC(O)c3nc(-c4ccccc4)oc3C)cc2)cc1 (configuration not stated) |  |  | < 5 |  |  |
| COc1ccc(OC(=O)N(CC(=O)O)Cc2ccc(OCCC(=O)NC(=O)c3ccccc3)cc2)cc1 | > 25 | > 15 | < 5 | > 15 |  |
| COc1ccc(OC(=O)N(CC(=O)O)Cc2ccc(OCCc3nc(-c4ccccc4)oc3CO)cc2)cc1 | 1.94 | 3.09 | < 5 | > 15 | %max [1]: 88%; Intrinsic activity [4]: 24% |
| COc1ccc(OC(=O)N(CC(=O)O)Cc2ccc(OCCc3nc(-c4ccccc4)oc3C)cc2)cc1 |  |  |  |  | Intrinsic activity [4]: 120% |
| COc1ccc(OC(=O)N(CC(=O)O)Cc2ccc(OCCc3nc(-c4ccccc4)oc3C)cc2)cc1.Cl [MURAGLITAZAR CHLORIDE] | 0.035 | 0.188 |  |  | AUC(0-t) at 96 h [8]: 101 µg·h/mL; Tmax [9]: 30 min; AUC(0-t) at 144 h [10]: 41000 ng·h/mL; Tmax [11]: 1 h; Cmax [12]: 800 ng/mL; AUC(0-t) at 192 h [13]: 12000 ng·h/mL; half-life [14]: 342 min; Cmax [15]: 6900 ng/mL; Cmax [16]: 1800 ng/mL; Cmax [17]: 12800 ng/mL; half-life [18]: 2110 min; AUC(0-t) at 12 h [19]: 1300 ng·h/mL; Tmax [20]: 30 min; half-life [21]: 1080 min; Tmax [22]: 1 h; half-life [23]: 618 min |

Second part, led by results:

| EC50 [2] [µM] | IC50 [3] [µM] | dose excreted at 48 h [5] [%] | IC50 [6] [µM] | Compound | other results |
| --- | --- | --- | --- | --- | --- |
| 18.1 | > 15 | < 5 | > 15 | O=C(O)CN(Cc1ccc(OCCc2nc(-c3ccccc3)oc2CO)cc1)C(=O)Oc1ccc(O)cc1 | %max [1]: 69%; Intrinsic activity [4]: 2% |
|  |  | < 5 |  | Cc1oc(-c2ccccc2)nc1CC(O)Oc1ccc(CN(CC(=O)O)C(=O)Oc2ccc(O)cc2)cc1 (configuration not stated) |  |
|  |  | < 5 |  | COc1ccc(OC(=O)N(CC(=O)O)Cc2ccc(OC(O)Cc3nc(-c4ccccc4)oc3CO)cc2)cc1 (configuration not stated) |  |
|  |  | < 5 |  | Cc1oc(-c2ccc(O)cc2)nc1CCOc1ccc(CN(CC(=O)O)C(=O)Oc2ccc(O)cc2)cc1 |  |
|  |  | < 5 |  | O=C(O)CN(Cc1ccc(O)cc1)C(=O)Oc1ccc(O)cc1 |  |
| > 25 | > 15 | < 5 | > 15 | COc1ccc(OC(=O)N(CC(=O)O)Cc2ccc(OCCC(=O)N(C(C)=O)C(=O)c3ccccc3)cc2)cc1 |  |
|  |  | < 5 |  | COc1ccc(OC(=O)N(CC(=O)O)Cc2ccc(OC(O)Cc3nc(-c4ccc(O)cc4)oc3C)cc2)cc1 (configuration not stated) |  |
| > 25 | > 15 | < 5 | > 15 | COc1ccc(OC(=O)N(CC(=O)O)Cc2ccc(O)cc2)cc1 |  |
|  |  | < 5 |  | COc1ccc(OC(=O)N(CC(=O)O)Cc2ccc(OCCc3nc(-c4ccccc4)oc3C(=O)O)cc2)cc1 |  |
